The values that follow come from patent US20080085884A1, “Melanin Concentrating Hormone Receptor-1 Antagonist Pyridinones” (Pfizer Inc, priority 2006, published 2008).

The pKi is −log10 of the Ki, conventionally taken in molar units. As usually defined, the Ki is the dissociation constant of the complex between target and ligand, obtained from inhibition or displacement.

pKi: −log10 of the molar value. Read-outs that look alike come from different tables or passages of the source.

This assay has as its target T1, human MCHR1 (Homo sapiens, UniProt Q99705).
T1 construct: host or cells: CHO
Put plainly: Cyclic AMP assay (MCHR-1 functional antagonism). It is filed as cell-based. As to conditions: CHO cells stably expressing human MCHR1, cAMP accumulation with 25 uM forskolin and 0.2 nM MCH, 90 min, Ki from IC50 by Cheng-Prusoff; for pKi: read-out: MCHR-1 functional Ki. Here is the method:
CHO cell lines stably expressing the human MCHR1 (Euroscreen, Brussels, Belgium) were maintained in DMEM containing Glutamax (Invitrogen, Carlsbad, Calif.), 10% FBS, 400 ug/ml Geneticin.
Cyclic AMP assays. CHO cells stably expressing the human MCHR1 receptors were collected and resuspended at a density of 4.0×10^6 cells/ml in F12 (Hams) media and seeded (20,000 cells per well) into 384-well, solid white Greiner assay plates. […] Cells were incubated at 37° C./5% CO2 for 90 minutes and cAMP accumulation subsequently determined by DiscoveRx Hithunter c-AMP II Assay kit (GE Healthcare, Buckinghamshire, UK) in accordance with manufactures instructions. Luminescence was measured on a LEADseaker imaging system (GE Healthcare, Buckinghamshire, UK). IC50 values were calculated from dose-response data fit using an in-house computer graphics and statistics program.
On the technique in general: Changes in cAMP serve as a functional read-out for many G protein-coupled receptors.

T1 sequence (Q99705 whole entry): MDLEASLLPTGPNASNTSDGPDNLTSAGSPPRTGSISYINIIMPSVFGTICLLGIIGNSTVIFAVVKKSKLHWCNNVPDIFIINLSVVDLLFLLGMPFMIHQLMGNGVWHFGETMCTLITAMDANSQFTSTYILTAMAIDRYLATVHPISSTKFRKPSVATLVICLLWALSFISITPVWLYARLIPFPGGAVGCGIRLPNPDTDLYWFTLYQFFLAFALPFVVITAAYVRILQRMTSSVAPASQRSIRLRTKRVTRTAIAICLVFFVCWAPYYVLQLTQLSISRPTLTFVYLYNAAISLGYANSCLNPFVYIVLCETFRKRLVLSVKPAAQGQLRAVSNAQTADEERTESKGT

On to `COC(=O)N1CCN(c2ccc(-n3ccc(OCc4ccccc4)cc3=O)cn2)CC1` [Example 48], for which the pKi was 6.15.
`N[C@@H]1CCN(c2ccc(-n3ccc(OCc4ccccc4)cc3=O)cn2)C1` [Example 54] registered a Ki (MCHR-1 functional Ki (nM)) of 5.91 nM.
Consider `N[C@H]1CCN(c2ccc(-n3ccc(OCc4ccccc4)cc3=O)cn2)C1` [Example 55, 6′-[(3S)-3-aminopyrrolidin-1-yl]-4-(benzyloxy)-2H-1,3′-bipyridin-2-one], for which the pKi was 8.44.
For the molecule `CN(C)[C@@H]1CCN(c2ccc(-n3ccc(OCc4ccccc4)cc3=O)cn2)C1` [Example 56], the pKi is 8.43.
As for `CN(C)[C@H]1CCN(c2ccc(-n3ccc(OCc4ccccc4)cc3=O)cn2)C1` [Example 57], the pKi is 8.44.
The same measure, in the same setting: the value for `CNC1CCN(c2ccc(-n3ccc(OCc4ccccc4)cc3=O)cn2)CC1` [Example 58] was 7.54; that for `O=c1cc(OCc2ccccc2)ccn1-c1ccc(N2CCC2)nc1` [Example 59] was 7.17.
With `CC(C)N(C)[C@H]1CCN(c2ccc(-n3ccc(OCc4ccccc4)cc3=O)cn2)C1` [Example 60], the pKi is 8.53.
Regarding `O=c1cc(OCc2ccccc2)ccn1-c1ccc(N2CCC(N3CCC3)C2)nc1` (centres unmarked) [Example 61], the pKi was 7.73.
Regarding `O=c1cc(OCc2ccccc2)ccn1-c1ccc(N2CCC(N3CCCC3)C2)nc1` (centres unmarked) [Example 63], the negative logarithm of the Ki (pKi) is 7.92.
For `O=c1cc(OCc2ccccc2)ccn1-c1ccc(N2CC3CCC(C2)N3)nc1` [Example 69], the pKi was 6.91.
As to `CC(C)C1CN(c2ccc(-n3ccc(OCc4ccccc4)cc3=O)cn2)CCN1` (centres unmarked) [Example 70], the pKi is 6.99.
As for `CC(C)CC1CN(c2ccc(-n3ccc(OCc4ccccc4)cc3=O)cn2)CCN1` (centres unmarked) [Example 71], the pKi is 6.20.
With `CCC1CN(c2ccc(-n3ccc(OCc4ccccc4)cc3=O)cn2)CCN1` (centres unmarked) [Example 72], the negative logarithm of the Ki (pKi) was 7.13.
As to `C[C@@H]1CN(c2ccc(-n3ccc(OCc4ccccc4)cc3=O)cn2)[C@@H](C)CN1` [Example 73], the pKi was 6.29.
For `O=c1cc(OCc2ccccc2)ccn1-c1ccc(N2CC(N3CCCC3)C2)nc1` [Example 78], the pKi was 6.81.
As to `O=c1cc(OCc2ccccc2)ccn1-c1ccc(N2CC(N3CCC3)C2)nc1` [Example 79], the pKi was 6.38.
As to `COC(=O)N1CCN(c2ccc(-n3ccc(OCc4ccc(F)cc4)cc3=O)cn2)CC1` [Example 81], the pKi is 5.93.
As to `CC(=O)N1CCN(c2ccc(-n3ccc(OCc4ccc(F)cc4)cc3=O)cn2)CC1` [Example 83], the pKi is 6.07.
Take `O=c1cc(OCc2ccc(F)cc2)ccn1-c1ccc(N2CCC[C@@H](O)C2)nc1` [Example 87]: the pKi is 6.72.
The same measure, in the same setting: the value for `O=c1cc(OCc2ccc(F)cc2)ccn1-c1ccc(N2CCC[C@H](O)C2)nc1` [Example 88] was 5.94.
`O=c1cc(OCc2ccc(F)cc2)ccn1-c1ccc(N2CCC2)nc1` [Example 90]: the pKi is 7.01.
Regarding `O=c1cc(OCc2ccc(F)cc2)ccn1-c1ccc(N2CC(O)C2)nc1` [Example 91], the pKi is 6.40.
As for `O=c1cc(COc2ccc(F)cc2)ccn1-c1ccc(N2CC[C@@H](O)C2)nc1` [Example 93], the pKi was 5.96.
The same measure, in the same setting: in the case of `O=c1cc(OCc2ccc(F)cc2)ccn1-c1ccc(N2CC(N3CCCC3)C2)nc1` [Example 95] it was 6.83.
Regarding `O=c1cc(OCc2ccc(F)cc2)ccn1-c1ccc(N2CC(N3CCC3)C2)nc1` [Example 96], the pKi was 6.71.
In the case of `O=c1cc(OCc2ccc(Cl)cc2)ccn1-c1ccc(N2C[C@@H](O)[C@@H](O)C2)nc1` [Example 101], the pKi is 7.59.
As for `N[C@@H]1CCN(c2ccc(-n3ccc(OCc4ccc(Cl)cc4)cc3=O)cn2)C1` [Example 105], the pKi is 8.20.
In the case of `O=c1cc(OCc2ccc(Cl)cc2)ccn1-c1ccc(N2CCC[C@@H](O)C2)nc1` [Example 106], the pKi was 7.18.
With `O=c1cc(OCc2ccc(Cl)cc2)ccn1-c1ccc(N2C[C@H]3CNC[C@H]3C2)nc1` [Example 107], the pKi was 8.27.
Consider `O=c1cc(OCc2ccccc2)ccn1-c1ccc(N2CCCCC2)nc1` [Example 110], for which the pKi is 7.38.
Turning to `CNC1CN(c2ccc(-n3ccc(OCc4ccccc4)cc3=O)cn2)C1` [Example 111], the negative-log Ki (pKi) was 6.79.
On the same count and under the same terms, the value for `CNC1CN(c2ccc(-n3ccc(OCc4ccc(F)cc4)cc3=O)cn2)C1` [Example 112] was 6.74; that for `O=c1cc(OCc2ccc(F)cc2)ccn1-c1ccc(N2CC[C@@H](O)C2)nc1` [Example 113] was 7.30; that for `O=c1cc(OCc2ccc(F)cc2)ccn1-c1ccc(N2CC[C@H](O)C2)nc1` [Example 114] was 7.32.
Turning to `O=c1cc(OCc2ccc(F)cc2)ccn1-c1ccc(N2CCC(O)CC2)nc1` [Example 115], the pKi was 7.00.
As to `O=c1cc(OCc2ccc(F)cc2)ccn1-c1ccc(N2CCCC2)nc1` [Example 116], the negative logarithm of the Ki (pKi) was 7.57.
Regarding `N[C@H]1CCN(c2ccc(-n3ccc(OCc4ccc(F)cc4)cc3=O)cn2)C1` [Example 118], the pKi was 7.94.
`CN[C@H]1CCN(c2ccc(-n3ccc(COc4ccccc4)cc3=O)cn2)C1` [Example 122]: the pKi was 6.96.
For `O=c1cc(OCc2cccc(Cl)c2)ccn1-c1ccc(N2CC[C@@H](O)C2)nc1` [Example 144], the negative logarithm of the Ki (pKi) was 7.16.
On to `O=c1cc(OCc2ccccc2Cl)ccn1-c1ccc(N2CC[C@@H](O)C2)nc1` [Example 145], for which the pKi is 7.01.
As to `O=c1cc(OCc2ccc(Cl)c(F)c2)ccn1-c1ccc(N2CC[C@@H](O)C2)nc1` [Example 146], the negative-log Ki (pKi) was 7.22.
As to `O=c1cc(OCc2ccc(Cl)cc2F)ccn1-c1ccc(N2CC[C@@H](O)C2)nc1` [Example 147], the pKi was 7.58.
For `O=c1cc(OCc2ccc(F)c(F)c2)ccn1-c1ccc(N2CC[C@@H](O)C2)nc1` [Example 148], the pKi is 6.90.
Same read-out and setting: in the case of `CN[C@H]1CCN(c2ccc(-n3ccc(OCc4cccc(Cl)c4)cc3=O)cn2)C1` [Example 149] it was 8.46; in that of `CN[C@H]1CCN(c2ccc(-n3ccc(OCc4ccc(F)c(F)c4)cc3=O)cn2)C1` [Example 150], 8.46.
For `CN[C@H]1CCN(c2ccc(-n3ccc(OCc4ccccc4Cl)cc3=O)cn2)C1` [Example 151], the pKi was 8.22.
For `CN[C@H]1CCN(c2ccc(-n3ccc(OCc4ccc(Cl)c(F)c4)cc3=O)cn2)C1` [Example 152], the pKi was 8.64.
With `CN[C@H]1CCN(c2ccc(-n3ccc(OCc4ccc(Cl)cc4F)cc3=O)cn2)C1` [Example 153], the pKi was 8.69.
For the molecule `CN(C(=O)OC(C)(C)C)[C@H]1CCN(c2ccc(-n3ccc(OCc4ccccc4)cc3=O)nn2)C1` [Example 156], the pKi is 6.64.
Same read-out and setting: in the case of `O=c1cc(OCc2ccccc2)ccn1-c1ccc(N2CC[C@@H](O)C2)nn1` [Example 157] it was 5.50.
Consider `CC(=O)N1C[C@@H]2CN(c3ccc(-n4ccc(OCc5ccccc5)cc4=O)cn3)C[C@@H]2C1` [Example 158], for which the pKi is 7.30.
For `CCN(C(C)=O)[C@@H]1CCN(c2ccc(-n3ccc(OCc4ccccc4)cc3=O)cn2)C1` [Example 160], the negative-log Ki (pKi) was 7.57.
Turning to `CCN(C(C)=O)[C@H]1CCN(c2ccc(-n3ccc(OCc4ccccc4)cc3=O)cn2)C1` [Example 161], the pKi is 7.48.
Consider `CC(=O)N[C@H]1CCN(c2ccc(-n3ccc(OCc4ccccc4)cc3=O)cn2)C1` [Example 162], for which the pKi is 7.51.
Same read-out and setting: in the case of `CC(=O)N1C[C@@H]2CN(c3ccc(-n4ccc(OCc5ccc(F)cc5)cc4=O)cn3)C[C@@H]2C1` [Example 164] it was 7.18.
With `CC(=O)N(C)C1CCN(c2ccc(-n3ccc(OCc4ccccc4)cc3=O)cn2)CC1` [Example 165], the negative-log Ki (pKi) was 7.53.
On to `CC(C)C(=O)N1CCN(c2ccc(-n3ccc(OCc4ccccc4)cc3=O)cn2)CC1` [Example 166], for which the pKi is 5.92.
`CCC(=O)N1CCN(c2ccc(-n3ccc(OCc4ccccc4)cc3=O)cn2)CC1` [Example 167]: the pKi was 6.13.
Consider `CCC(=O)N1CCN(c2ccc(-n3ccc(OCc4ccc(F)cc4)cc3=O)cn2)CC1` [Example 168], for which the pKi was 6.27.
Consider `CCCC(=O)N[C@H]1CCN(c2ccc(-n3ccc(OCc4ccccc4)cc3=O)cn2)C1` [Example 169], for which the pKi was 7.71.
On to `CC(C)C(=O)N1C[C@@H]2CN(c3ccc(-n4ccc(OCc5ccc(F)cc5)cc4=O)cn3)C[C@@H]2C1` [Example 170], for which the pKi is 7.54.
Consider `CCC(=O)N1C[C@@H]2CN(c3ccc(-n4ccc(OCc5ccc(F)cc5)cc4=O)cn3)C[C@@H]2C1` [Example 171], for which the pKi was 7.42.
For `CC(=O)N(C)[C@@H]1CCN(c2ccc(-n3ccc(OCc4ccc(Cl)cc4)cc3=O)cn2)C1` [Example 172], the pKi was 7.96.
Same read-out and setting: in the case of `CC(=O)N(C)[C@H]1CCN(c2ccc(-n3ccc(OCc4ccc(Cl)cc4)cc3=O)cn2)C1` [Example 173] it was 7.88; in that of `CC(=O)N[C@H]1CCN(c2ccc(-n3ccc(OCc4ccc(Cl)cc4)cc3=O)cn2)C1` [Example 174], 7.58; in that of `CC(=O)N[C@@H]1CCN(c2ccc(-n3ccc(OCc4ccc(Cl)cc4)cc3=O)cn2)C1` [Example 175], 7.23.
For the molecule `CCOC(=O)N[C@H]1CCN(c2ccc(-n3ccc(OCc4ccccc4)cc3=O)cn2)C1` [Example 176], the negative-log Ki (pKi) is 7.52.
